Measured values as given in the kinase profiling compilation of Christmann-Franck et al. (2016).

How the values were obtained:
Test in all cases: radiometric filter-binding kinase assay
CSNK1D (human) = CSNK1D (human) (UniProt P48730)
MAP3K7 TAB1 (human) = MAP3K7 TAB1 (human) (UniProt Q15750+O43318)
MAPK14 (human) = MAPK14 (human) (UniProt Q16539)
YES1 (human) = YES1 (human) (UniProt P07947)
MAPK9 (human) = MAPK9 (human) (UniProt P45984)
IGF1R (human) = IGF1R (human) (UniProt P08069)
PAK4 (human) = PAK4 (human) (UniProt O96013)
MAPKAPK2 (human) = MAPKAPK2 (human) (UniProt P49137)
IKBKB (human) = IKBKB (human) (UniProt O14920)
MINK1 (human) = MINK1 (human) (UniProt Q8N4C8)
PIM1 (human) = PIM1 (human) (UniProt P11309)
MKNK2 (human) = MKNK2 (human) (UniProt Q9HBH9)
MAPKAPK5 (human) = MAPKAPK5 (human) (UniProt Q8IW41)
CAMKK2 (human) = CAMKK2 (human) (UniProt Q96RR4)
RIPK2 (human) = RIPK2 (human) (UniProt O43353)
AURKB (human) = AURKB (human) (UniProt Q96GD4)
MELK (human) = MELK (human) (UniProt Q14680)
MAPK8 (human) = MAPK8 (human) (UniProt P45983)
EPHB2 (human) = EPHB2 (human) (UniProt P29323); settings: compound 0.1 µM
BTK (human) = BTK (human) (UniProt Q06187)
PRKACA (human) = PRKACA (human) (UniProt P17612)
PAK7 (human) = PAK7 (human) (UniProt Q9P286)
EPHA4 (human) = EPHA4 (human) (UniProt P54764)
HIPK2 (human) = HIPK2 (human) (UniProt Q9H2X6)
MAPK12 (human) = MAPK12 (human) (UniProt P53778)
MAP3K11 (human) = MAP3K11 (human) (UniProt Q16584)
MAPK15 (human) = MAPK15 (human) (UniProt Q8TD08)
MAP2K2 (human) = MAP2K2 (human) (UniProt P36507)
DYRK2 (human) = DYRK2 (human) (UniProt Q92630)
CSK (human) = CSK (human) (UniProt P41240)
EPHB3 (human) = EPHB3 (human) (UniProt P54753)
BRSK1 (human) = BRSK1 (human) (UniProt Q8TDC3)
DYRK1A (human) = DYRK1A (human) (UniProt Q13627)
IKBKE (human) = IKBKE (human) (UniProt Q14164)
CaMK1 (human) = CaMK1 (human) (UniProt Q14012)

Sequence of MAP2K2 (human) (P36507 whole entry, looked up): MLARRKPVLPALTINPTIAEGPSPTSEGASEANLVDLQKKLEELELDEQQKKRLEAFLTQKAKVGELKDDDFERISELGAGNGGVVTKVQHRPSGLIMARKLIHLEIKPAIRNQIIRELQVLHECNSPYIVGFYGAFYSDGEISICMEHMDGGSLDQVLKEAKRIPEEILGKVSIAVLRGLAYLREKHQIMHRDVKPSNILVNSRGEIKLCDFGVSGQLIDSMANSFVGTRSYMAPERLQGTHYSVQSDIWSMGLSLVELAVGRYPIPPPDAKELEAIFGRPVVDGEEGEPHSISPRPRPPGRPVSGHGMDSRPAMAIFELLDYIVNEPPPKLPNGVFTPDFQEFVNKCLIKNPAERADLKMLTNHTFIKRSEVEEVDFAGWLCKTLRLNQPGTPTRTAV
Sequence of HIPK2 (human) (Q9H2X6 whole entry, looked up): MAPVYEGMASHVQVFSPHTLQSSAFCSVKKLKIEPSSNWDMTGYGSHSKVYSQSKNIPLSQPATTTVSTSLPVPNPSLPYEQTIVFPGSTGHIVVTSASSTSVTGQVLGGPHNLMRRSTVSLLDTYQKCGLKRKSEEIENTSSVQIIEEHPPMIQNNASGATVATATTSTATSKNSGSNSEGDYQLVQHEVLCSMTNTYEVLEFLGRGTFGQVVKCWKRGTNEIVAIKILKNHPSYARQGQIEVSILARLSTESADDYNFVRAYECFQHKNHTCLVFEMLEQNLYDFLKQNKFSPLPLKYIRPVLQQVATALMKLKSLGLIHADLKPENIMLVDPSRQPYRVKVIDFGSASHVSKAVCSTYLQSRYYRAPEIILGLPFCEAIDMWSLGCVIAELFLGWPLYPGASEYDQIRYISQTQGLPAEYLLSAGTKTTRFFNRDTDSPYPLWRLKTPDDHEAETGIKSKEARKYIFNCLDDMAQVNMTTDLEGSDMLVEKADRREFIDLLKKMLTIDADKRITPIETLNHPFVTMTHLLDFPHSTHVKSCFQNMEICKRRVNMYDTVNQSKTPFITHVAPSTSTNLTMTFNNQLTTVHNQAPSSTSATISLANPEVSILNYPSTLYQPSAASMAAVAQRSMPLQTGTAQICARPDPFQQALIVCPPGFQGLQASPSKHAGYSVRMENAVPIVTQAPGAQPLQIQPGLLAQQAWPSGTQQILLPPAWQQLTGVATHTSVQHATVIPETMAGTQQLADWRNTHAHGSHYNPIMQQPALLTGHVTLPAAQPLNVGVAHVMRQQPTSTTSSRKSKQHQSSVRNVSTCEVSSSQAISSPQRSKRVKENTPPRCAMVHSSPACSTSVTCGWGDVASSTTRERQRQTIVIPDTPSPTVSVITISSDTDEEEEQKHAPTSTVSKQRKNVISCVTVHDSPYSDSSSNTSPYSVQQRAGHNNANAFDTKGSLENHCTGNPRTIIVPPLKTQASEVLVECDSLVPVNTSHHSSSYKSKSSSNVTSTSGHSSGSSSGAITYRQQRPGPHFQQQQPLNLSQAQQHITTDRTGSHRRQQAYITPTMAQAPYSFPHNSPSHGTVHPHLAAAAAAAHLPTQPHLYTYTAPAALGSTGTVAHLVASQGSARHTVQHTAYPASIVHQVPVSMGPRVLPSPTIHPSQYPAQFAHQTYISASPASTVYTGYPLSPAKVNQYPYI
Sequence of PIM1 (human) (P11309 whole entry, looked up): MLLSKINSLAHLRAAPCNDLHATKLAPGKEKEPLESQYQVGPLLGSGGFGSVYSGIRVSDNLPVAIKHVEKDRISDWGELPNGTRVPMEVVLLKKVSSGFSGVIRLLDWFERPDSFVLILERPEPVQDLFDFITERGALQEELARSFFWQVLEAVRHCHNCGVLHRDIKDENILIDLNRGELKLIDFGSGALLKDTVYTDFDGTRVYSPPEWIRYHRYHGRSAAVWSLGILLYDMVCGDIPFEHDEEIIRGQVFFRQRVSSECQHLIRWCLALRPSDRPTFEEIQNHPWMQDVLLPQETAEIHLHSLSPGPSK
Sequence of CAMKK2 (human) (Q96RR4 whole entry, looked up): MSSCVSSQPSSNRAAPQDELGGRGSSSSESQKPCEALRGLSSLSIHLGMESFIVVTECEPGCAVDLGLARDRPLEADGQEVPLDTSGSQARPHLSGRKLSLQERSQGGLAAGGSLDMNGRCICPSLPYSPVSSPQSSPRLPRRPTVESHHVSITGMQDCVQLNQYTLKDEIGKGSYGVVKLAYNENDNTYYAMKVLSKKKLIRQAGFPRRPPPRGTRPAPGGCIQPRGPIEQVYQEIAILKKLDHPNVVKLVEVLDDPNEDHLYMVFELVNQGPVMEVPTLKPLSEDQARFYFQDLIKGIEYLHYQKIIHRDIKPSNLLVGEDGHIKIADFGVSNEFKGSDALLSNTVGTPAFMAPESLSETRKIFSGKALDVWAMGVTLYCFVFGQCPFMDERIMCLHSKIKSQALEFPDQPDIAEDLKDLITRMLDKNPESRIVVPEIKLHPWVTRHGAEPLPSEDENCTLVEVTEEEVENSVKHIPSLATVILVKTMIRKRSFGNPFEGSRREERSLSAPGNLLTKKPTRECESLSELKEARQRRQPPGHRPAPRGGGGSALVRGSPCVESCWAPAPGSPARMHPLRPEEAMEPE
Sequence of YES1 (human) (P07947 whole entry, looked up): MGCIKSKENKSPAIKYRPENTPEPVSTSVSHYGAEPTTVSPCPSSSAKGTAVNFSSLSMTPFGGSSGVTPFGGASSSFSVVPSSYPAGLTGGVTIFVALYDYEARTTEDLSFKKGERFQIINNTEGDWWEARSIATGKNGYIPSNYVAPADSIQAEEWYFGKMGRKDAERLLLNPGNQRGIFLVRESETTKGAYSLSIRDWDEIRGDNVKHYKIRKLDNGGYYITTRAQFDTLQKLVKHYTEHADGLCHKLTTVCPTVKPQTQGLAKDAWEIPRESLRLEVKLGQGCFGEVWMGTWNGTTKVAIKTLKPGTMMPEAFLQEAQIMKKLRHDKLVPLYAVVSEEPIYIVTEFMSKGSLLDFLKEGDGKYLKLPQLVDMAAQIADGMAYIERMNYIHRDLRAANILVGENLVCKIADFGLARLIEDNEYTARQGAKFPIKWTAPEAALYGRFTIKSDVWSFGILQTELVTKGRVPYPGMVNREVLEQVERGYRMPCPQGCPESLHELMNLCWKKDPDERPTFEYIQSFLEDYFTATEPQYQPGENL
Sequence of MAPK12 (human) (P53778 whole entry, looked up): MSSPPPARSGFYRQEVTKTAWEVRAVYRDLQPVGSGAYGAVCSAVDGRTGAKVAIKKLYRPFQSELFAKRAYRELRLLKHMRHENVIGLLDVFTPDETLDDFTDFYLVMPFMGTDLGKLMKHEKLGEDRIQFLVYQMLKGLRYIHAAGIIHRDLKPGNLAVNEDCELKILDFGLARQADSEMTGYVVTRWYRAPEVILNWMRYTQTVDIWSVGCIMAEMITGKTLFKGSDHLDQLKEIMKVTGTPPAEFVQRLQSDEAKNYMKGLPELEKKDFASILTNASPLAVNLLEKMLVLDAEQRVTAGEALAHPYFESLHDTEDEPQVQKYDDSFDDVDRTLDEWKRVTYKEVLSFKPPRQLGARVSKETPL
Sequence of CSNK1D (human) (P48730 whole entry, looked up): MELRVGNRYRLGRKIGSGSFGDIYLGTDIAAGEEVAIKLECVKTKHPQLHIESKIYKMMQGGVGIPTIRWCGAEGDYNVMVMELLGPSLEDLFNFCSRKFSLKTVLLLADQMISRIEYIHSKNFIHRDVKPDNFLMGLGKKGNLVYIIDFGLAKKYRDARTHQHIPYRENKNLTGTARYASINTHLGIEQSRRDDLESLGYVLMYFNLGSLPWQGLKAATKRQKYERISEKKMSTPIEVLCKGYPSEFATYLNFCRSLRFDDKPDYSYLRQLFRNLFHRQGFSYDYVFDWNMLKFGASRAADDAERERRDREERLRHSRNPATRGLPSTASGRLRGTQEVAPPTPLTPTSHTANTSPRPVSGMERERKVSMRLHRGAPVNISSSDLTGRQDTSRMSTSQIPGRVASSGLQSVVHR
Sequence of BTK (human) (Q06187 whole entry, looked up): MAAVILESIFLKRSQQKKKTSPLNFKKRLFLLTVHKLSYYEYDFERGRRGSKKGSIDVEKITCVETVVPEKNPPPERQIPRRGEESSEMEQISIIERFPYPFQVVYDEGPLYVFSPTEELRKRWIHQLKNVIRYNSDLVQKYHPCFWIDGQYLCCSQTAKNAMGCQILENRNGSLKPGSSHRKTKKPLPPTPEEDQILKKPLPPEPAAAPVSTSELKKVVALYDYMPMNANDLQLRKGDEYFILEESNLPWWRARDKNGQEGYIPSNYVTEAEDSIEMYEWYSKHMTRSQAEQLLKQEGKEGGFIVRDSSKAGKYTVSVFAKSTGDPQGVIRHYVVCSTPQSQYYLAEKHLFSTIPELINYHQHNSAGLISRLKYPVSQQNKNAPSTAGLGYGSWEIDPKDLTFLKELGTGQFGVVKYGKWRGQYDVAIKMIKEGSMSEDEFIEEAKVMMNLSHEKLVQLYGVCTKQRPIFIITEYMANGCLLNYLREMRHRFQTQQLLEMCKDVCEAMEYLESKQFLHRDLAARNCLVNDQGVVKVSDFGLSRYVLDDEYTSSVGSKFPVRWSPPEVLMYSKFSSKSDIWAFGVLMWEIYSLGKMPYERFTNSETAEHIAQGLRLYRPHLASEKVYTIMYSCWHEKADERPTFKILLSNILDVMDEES
Sequence of AURKB (human) (Q96GD4 whole entry, looked up): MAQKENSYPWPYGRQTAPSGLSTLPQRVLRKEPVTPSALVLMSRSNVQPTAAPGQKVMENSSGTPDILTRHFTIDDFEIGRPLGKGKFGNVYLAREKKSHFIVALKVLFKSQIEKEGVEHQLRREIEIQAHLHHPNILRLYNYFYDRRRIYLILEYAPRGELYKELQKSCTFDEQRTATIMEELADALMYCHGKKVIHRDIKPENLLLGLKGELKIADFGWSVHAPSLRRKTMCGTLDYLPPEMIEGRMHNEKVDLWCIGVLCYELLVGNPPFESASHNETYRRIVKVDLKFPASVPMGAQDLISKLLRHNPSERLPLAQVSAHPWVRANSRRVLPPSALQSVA

Work on `NC(=O)c1cc(-c2ccnc(NC3CCCCC3)c2)nc(N2CCNCC2)c1` yielded a residual activity (CSNK1D (human); compound 0.1 µM) of 75%, a residual activity (CSNK1D (human); compound 1.0 µM) of 42% and a residual activity (CSNK1D (human); compound 10.0 µM) of 18%. For the same compound, the residual activity (MAP3K7 TAB1 (human); compound 0.1 µM) was 94%, the residual activity (MAP3K7 TAB1 (human); compound 1.0 µM) was 100% and the residual activity (MAP3K7 TAB1 (human); compound 10.0 µM) was 55%. For the same compound, the residual activity (MAPK14 (human); compound 0.1 µM) was 104%, the residual activity (MAPK14 (human); compound 1.0 µM) was 116% and the residual activity (MAPK14 (human); compound 10.0 µM) was 103%. For the same compound, the residual activity (YES1 (human); compound 0.1 µM) was 107%, the residual activity (YES1 (human); compound 1.0 µM) was 94% and the residual activity (YES1 (human); compound 10.0 µM) was 76%. The residual activity (MAPK9 (human); compound 0.1 µM) was 91%, the residual activity (MAPK9 (human); compound 10.0 µM) was 35% and the residual activity (IGF1R (human); compound 0.1 µM) was 97%. The residual activity (IGF1R (human); compound 1.0 µM) was 102%, the residual activity (IGF1R (human); compound 10.0 µM) was 99% and the residual activity (PAK4 (human); compound 0.1 µM) was 101%. It also gave a residual activity (PAK4 (human); compound 1.0 µM) of 93%, a residual activity (PAK4 (human); compound 10.0 µM) of 74% and a residual activity (MAPKAPK2 (human); compound 0.1 µM) of 99%. The residual activity (MAPKAPK2 (human); compound 1.0 µM) was 72%, the residual activity (MAPKAPK2 (human); compound 10.0 µM) was 22% and the residual activity (IKBKB (human); compound 0.1 µM) was 85%. It also gave a residual activity (IKBKB (human); compound 1.0 µM) of 50%, a residual activity (IKBKB (human); compound 10.0 µM) of 23% and a residual activity (MINK1 (human); compound 0.1 µM) of 65%. The residual activity (MINK1 (human); compound 1.0 µM) was 13%, the residual activity (MINK1 (human); compound 10.0 µM) was 2% and the residual activity (PIM1 (human); compound 0.1 µM) was 114%. For the same compound, the residual activity (PIM1 (human); compound 1.0 µM) was 98%, the residual activity (PIM1 (human); compound 10.0 µM) was 65% and the residual activity (MKNK2 (human); compound 0.1 µM) was 76%. It also gave a residual activity (MKNK2 (human); compound 1.0 µM) of 31%, a residual activity (MKNK2 (human); compound 10.0 µM) of 6% and a residual activity (MAPKAPK5 (human); compound 0.1 µM) of 109%. It also gave a residual activity (MAPKAPK5 (human); compound 1.0 µM) of 97%, a residual activity (MAPKAPK5 (human); compound 10.0 µM) of 65% and a residual activity (CAMKK2 (human); compound 0.1 µM) of 85%. The residual activity (CAMKK2 (human); compound 1.0 µM) was 99%, the residual activity (CAMKK2 (human); compound 10.0 µM) was 62% and the residual activity (RIPK2 (human); compound 0.1 µM) was 96%. It also gave a residual activity (RIPK2 (human); compound 1.0 µM) of 96%, a residual activity (RIPK2 (human); compound 10.0 µM) of 79% and a residual activity (AURKB (human); compound 0.1 µM) of 132%. It also gave a residual activity (AURKB (human); compound 1.0 µM) of 117%, a residual activity (AURKB (human); compound 10.0 µM) of 115% and a residual activity (MELK (human); compound 0.1 µM) of 108%. It also gave a residual activity (MELK (human); compound 1.0 µM) of 78%, a residual activity (MELK (human); compound 10.0 µM) of 40% and a residual activity (MAPK8 (human); compound 0.1 µM) of 109%. It also gave a residual activity (MAPK8 (human); compound 1.0 µM) of 100%, a residual activity (MAPK8 (human); compound 10.0 µM) of 38% and a residual activity (EPHB2 (human)) of 105%. The residual activity (BTK (human); compound 0.1 µM) was 92%, the residual activity (BTK (human); compound 1.0 µM) was 120% and the residual activity (BTK (human); compound 10.0 µM) was 79%. It also gave a residual activity (PRKACA (human); compound 0.1 µM) of 105%, a residual activity (PRKACA (human); compound 1.0 µM) of 109% and a residual activity (PRKACA (human); compound 10.0 µM) of 93%. For the same compound, the residual activity (PAK7 (human); compound 0.1 µM) was 97%, the residual activity (PAK7 (human); compound 1.0 µM) was 90% and the residual activity (PAK7 (human); compound 10.0 µM) was 71%. The residual activity (EPHA4 (human); compound 0.1 µM) was 90%, the residual activity (EPHA4 (human); compound 1.0 µM) was 78% and the residual activity (EPHA4 (human); compound 10.0 µM) was 48%. For the same compound, the residual activity (HIPK2 (human); compound 0.1 µM) was 89%, the residual activity (HIPK2 (human); compound 1.0 µM) was 125% and the residual activity (HIPK2 (human); compound 10.0 µM) was 87%. The residual activity (MAPK12 (human); compound 0.1 µM) was 95%, the residual activity (MAPK12 (human); compound 1.0 µM) was 96% and the residual activity (MAPK12 (human); compound 10.0 µM) was 58%. It also gave a residual activity (MAP3K11 (human); compound 0.1 µM) of 93%, a residual activity (MAP3K11 (human); compound 1.0 µM) of 86% and a residual activity (MAP3K11 (human); compound 10.0 µM) of 81%. It also gave a residual activity (MAPK15 (human); compound 0.1 µM) of 63%, a residual activity (MAPK15 (human); compound 1.0 µM) of 26% and a residual activity (MAPK15 (human); compound 10.0 µM) of 4%. For the same compound, the residual activity (MAP2K2 (human); compound 0.1 µM) was 106%, the residual activity (MAP2K2 (human); compound 1.0 µM) was 123% and the residual activity (MAP2K2 (human); compound 10.0 µM) was 115%. The residual activity (DYRK2 (human); compound 0.1 µM) was 74%, the residual activity (DYRK2 (human); compound 1.0 µM) was 29% and the residual activity (DYRK2 (human); compound 10.0 µM) was 10%. For the same compound, the residual activity (CSK (human); compound 0.1 µM) was 113%, the residual activity (CSK (human); compound 1.0 µM) was 116% and the residual activity (CSK (human); compound 10.0 µM) was 90%. It also gave a residual activity (EPHB3 (human); compound 0.1 µM) of 105%, a residual activity (EPHB3 (human); compound 1.0 µM) of 124% and a residual activity (EPHB3 (human); compound 10.0 µM) of 94%. For the same compound, the residual activity (BRSK1 (human); compound 0.1 µM) was 96%, the residual activity (BRSK1 (human); compound 1.0 µM) was 73% and the residual activity (BRSK1 (human); compound 10.0 µM) was 26%. For the same compound, the residual activity (DYRK1A (human); compound 0.1 µM) was 97%, the residual activity (DYRK1A (human); compound 1.0 µM) was 63% and the residual activity (DYRK1A (human); compound 10.0 µM) was 21%. The residual activity (IKBKE (human); compound 0.1 µM) was 98%, the residual activity (IKBKE (human); compound 1.0 µM) was 87% and the residual activity (IKBKE (human); compound 10.0 µM) was 48%. For the same compound, the residual activity (CaMK1 (human); compound 0.1 µM) was 81%, the residual activity (CaMK1 (human); compound 1.0 µM) was 20% and the residual activity (CaMK1 (human); compound 10.0 µM) was 1%.
